Non-standard residues stand in square brackets, D forms with d. No end group written: not given here.
B1: PPA1, proteolysis resistant PD-L1-targeted peptide (peptide)
peptide: NYSKPTDRQYHFK
modifications: all residues in D-form
notes: D-peptide, printed in lower case (nyskptdrqyhfk); also called free PPA1; PD-L1 targeting polypeptide; source: synthetic peptide, bought: Chinapeptides Co., Ltd
B2: PPA1-DOX, conjugate of PPA1 with doxorubicin through an acid-sensitive hydrazone linker (peptide)
peptide: [dN][dY][dS][dK][dP][dT][dD][dR][dQ][dY][dH][dF]K
modifications: not fully specified (residue 13); also: triazole from click, hydrazone to doxorubicin
notes: D-peptide, printed as nyskptdrqyhf-Lys(N3); the last lysine carries the azide used for the conjugation to DOX; also called compound 5; PPA-DOX; source: synthetic: azide end-functionalized PPA1 peptide joined to hydrazine-DOX by click chemistry, purified by HPLC

Assays:
heart, liver and kidney = assay: H&E histology of major organs of tumor-bearing mice; assay type: in vivo, Balb/c mice; conditions: CT26-bearing mice, i.p. twice a week for two weeks, n = 7
CT26 tumor = assay: Antitumor activity in CT26-bearing mice; assay type: in vivo, Balb/c mice; conditions: i.p. twice a week for two weeks
[1] = test system: intratumoral CD4+ and CD8+ T cells; assay: CD4/CD8 immunohistochemistry of tumor tissues; assay type: in vivo, Balb/c mice; conditions: CT26-bearing mice, compared with RNA-DOX-, DOX- or 5-FU-treated mice
Experimental: The tumor tissues were fixed in 4% paraformaldehyde, gradually dehydrated, embedded in paraffin, cut into 4um sections, and subjected for hematoxylin/eosin staining. For immuno-histochemical staining of CD4/CD8 positive cells, tissue sections processed through deparaffinage, rehydration and antigen plerosised, and endogenous peroxidase activity blockade, were incubated with mouse anti-human CD4(1:300, Proteintech, USA), mouse anti-human CD8(1:200, Proteintech, USA) at 4°C overnight, respectively. The secrions were then washed and incubated with a HRP-labeled secondary antibody at RT for 40 min. After color development through incubation with diaminobenzidine, the sections were counterstained with hematoxylin. The stained sections were observed and imaged under a light microscope.

[2] = Cleavage assay of PPA1-DOX in mouse serum; assay type: in vitro ADME; conditions: mouse serum pH 7.4, 37°C, 24 h, under nitrogen, 1 mg/mol (so in the source) in 2 mL; HPLC (HILIC), UV 254 nm
Experimental: (§1) To verify the acid sensitivity of hydrazone bond linking the PPA1 to DOX, a series of PPA1-DOX and DOX solutions with different concentrations were configured in the sodium phosphate buffer (pH= 9.0), respectively. A 5 μL aliquot of each sample was injected onto an HPLC system with ultraviolet detector wavelength to determine 254 nm absorbance values, using hydrophilic interaction chromatography (HILIC) column separation (Waters, XBridge BEH HILIC XP Column, 2.1 mm, 50 mm, 2.5 µm). Through simulating the linearity fitting from disposed concentrations and detected absorbance values, standard curves of PPA1-DOX and DOX were obtained, respectively.
(§2) Preparing two partials of PPA1-DOX (1 mg/mol) were dissolved into the 2 mL sodium phosphate buffer (pH = 5.0) and 2 mL mouse serum (pH = 7.4), respectively, and the vials were capped and kept 37°C under nitrogen with continuously slight oscillaation. Samples (20 μL) were spiked and analyzed by HPLC under the 254 nm absorbance value after incubating 0.5 h, 1 h, 2 h, 4 h, 12 h and 24 h. For evaluation of hydrazone bond cleavage data was considered the disappearance of the major peak related to the standard curves of PPA1-DOX and DOX.

[3] = Cleavage assay of PPA1-DOX in acidic sodium phosphate buffer; assay type: physicochemical; conditions: sodium phosphate buffer pH 5.0, 37°C, sampled 0.5-24 h, under nitrogen, 1 mg/mol (so in the source) in 2 mL; HPLC (HILIC), UV 254 nm
Experimental: as §1, §2

[4] = Body weight of CT26 tumor-bearing mice; conditions: i.p. twice a week for two weeks, DOX 5 mg/kg, 5-Fu 10 mg/kg, PPA1 15 mg/kg, PPA1-DOX 20 mg/kg, after day 7, n = 7
Text: Six-week-old female Balb/c mice were inoculated subcutaneously with 5 × 10^6 CT26 cells in the left armpit. The mice were randomly divided into groups with 7 mice in each group after the tumor reached about 100 mm^3. The mice were housed in animal house of Shenzhen University. For the survival experiment, the mice were killed when the tumor reached about 1500 mm^3. The tumor size and body weight were monitored every day after the injection of the drugs. At the end of the experiment, the tumors and major organs (heart, liver, spleen, lung, and kidney) were collected for immunohistochemistry and/or histological tests. For the PPA1-DOX distribution experiment, the tumors and major organs were subsequently analyzed with an in vivo imaging system (IVIS Spectrum, PerkinElmer).
DOX at 5 mg/kg, 5-Fu at 10 mg/kg, PPA1 and RAN at 15mg/kg, PPA1-DOX and RAN-DOX at 20 mg/kg were injected intraperitoneally to mice twice a week for two weeks. […] For the PPA1-DOX distribution experiment, RhB-PPA1-DOX and RhB-RAN-DOX at 20mg/kg were injected into the tail vein of the mice.

[5] = molecular target: Programmed death-ligand 1 (PD-L1), Tag1-PD-L1 (UniProt Q9NZQ7 19-238); assay: AlphaScreen or HTRF; Cisbio HTRF PD1/PD-L1 binding assay kit; Tag1-PD-L1 and Tag2-PD1 detected with anti-Tag1-Europium (donor) and anti-Tag2-XL665 (acceptor); peptide or conjugate varied as blocker; IC50 from a sigmoidal (Hill) fit; n = 3; conditions: both partners purified
Programmed death-ligand 1 (PD-L1), Tag1-PD-L1, sequence (Q9NZQ7 19-238): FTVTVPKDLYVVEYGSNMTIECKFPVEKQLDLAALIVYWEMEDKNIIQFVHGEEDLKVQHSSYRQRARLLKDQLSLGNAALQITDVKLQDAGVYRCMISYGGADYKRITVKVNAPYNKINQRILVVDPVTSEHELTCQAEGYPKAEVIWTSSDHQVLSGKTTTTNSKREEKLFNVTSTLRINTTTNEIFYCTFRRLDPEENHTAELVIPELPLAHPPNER

| Molecule | toxicity to major organs (H&E stained sections) (heart, liver and kidney) | IC50 [5] | further results |
| --- | --- | --- | --- |
| O=c1[nH]cc(F)c(=O)[nH]1 [Compound 5-Fu] | severe damages |  |  |
| COc1cccc2c1C(=O)c1c(O)c3c(c(O)c1C2=O)C[C@@](O)(C(=O)CO)C[C@@H]3O[C@H]1C[C@H](N)[C@H](O)[C@H](C)O1 [DOX, doxorubicin] | severe damages |  |  |
| C[C@H](O)[C@@H](NC(=O)[C@H]1CCCN1C(=O)[C@@H](CCCCN)NC(=O)[C@@H](CO)NC(=O)[C@@H](Cc1ccc(O)cc1)NC(=O)[C@H](N)CC(N)=O)C(=O)N[C@H](CC(=O)O)C(=O)N[C@H](CCCNC(=N)N)C(=O)N[C@H](CCC(N)=O)C(=O)N[C@H](Cc1ccc(O)cc1)C(=O)N[C@H](Cc1c[nH]cn1)C(=O)N[C@H](Cc1ccccc1)C(=O)N[C@H](CCCCN)C(=O)O [PPA1] | rather low toxicity |  |  |
| COc1cccc2c1C(=O)c1c(O)c3c(c(O)c1C2=O)C[C@@](O)(C(CO)=NNC(=O)CCCc1cn(CC(=O)NCCCC[C@@H](NC(=O)[C@@H](Cc2ccccc2)NC(=O)[C@@H](Cc2c[nH]cn2)NC(=O)[C@@H](Cc2ccc(O)cc2)NC(=O)[C@@H](CCC(N)=O)NC(=O)[C@@H](CCCNC(=N)N)NC(=O)[C@@H](CC(=O)O)NC(=O)[C@H](NC(=O)[C@H]2CCCN2C(=O)[C@@H](CCCCN)NC(=O)[C@@H](CO)NC(=O)[C@@H](Cc2ccc(O)cc2)NC(=O)[C@H](N)CC(N)=O)[C@H](C)O)C(=O)O)nn1)C[C@@H]3O[C@H]1C[C@H](N)[C@H](O)[C@H](C)O1 [PPA1-DOX] | rather low toxicity |  | survival time (CT26 tumor; PPA1-DOX 20 mg/kg, superior to free PPA1 and RAN-DOX, mice killed at tumor about 1500 mm^3, n = 7): longer survival time; tumor growth (CT26 tumor; PPA1-DOX and RAN-DOX 20 mg/kg, n = 7): effective suppression of tumor growth; infiltration of CD4+ and CD8+ T cells in tumors [1]: obviously increased infiltration; stability of conjugate in mouse serum (HPLC peaks) [2]: little change on peaks; hydrazone cleavage in acidic environment [3]: rapidly cleaved into PPA1 and DOX; body weight change [4]: no remarkable body weight loss |
| B1 |  | 174 nM |  |
| B2 |  | 281 nM |  |
